Measurements as given in patent US11109593B2, “Isoxazolin-5-one derivative and herbicide containing same as active ingredient” (HOKKO CHEMICAL INDUSTRY CO., LTD., priority 2017, dated 2021).

Legend:
Assay type in all cases: in vivo
[1] = tested on: broad leaf weeds (Lindernia pyxidaria and Monochoria vaginalis); test: Test Example 1: herbicidal effect test by treatment of rice paddy soil (immediately after seeding); conditions: 120 g/10a active ingredient, dry weight vs untreated area, 14 days after treatment
Summary of the method: (§1)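 Puddled, fertilized (N:P:K=17:17:17) paddy soil in Wagner pots; seeds sown 0–1 cm deep, flooded to about 3 cm. Emulsifiable formulations diluted in water and dropped into the water immediately after seeding at 120 g active ingredient per 10 ares; greenhouse. Herbicidal rate from dry weight vs untreated at 14 days.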

[2] = tested on: Echinochloa crus-galli; test: as above; conditions: 120 g/10a active ingredient, dry weight vs untreated area, 14 days after treatment
Summary of the method: as §1

[3] = tested on: Scirpus juncoides; test: as above; conditions: 120 g/10a active ingredient, dry weight vs untreated area, 14 days after treatment
Summary of the method: as §1

[4] = tested on: Chenopodium album; test: Test Example 3: herbicidal effect test by treatment of dry field farming soil (one day after seeding); conditions: 120 g/10a active ingredient, evaluated 14 days after treatment
Summary of the method: (§2)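 Herbicidal rate (%) = {1 − treated/untreated mean plant dry weight} × 100, scored 14 days after spraying, duplicate pots per concentration. Emulsified compound was water-diluted and applied to soil surface one day post-seeding at 120 g a.i. per 10 ares.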

[5] = tested on: Echinochloa crus-galli; test: as above; conditions: 120 g/10a active ingredient, evaluated 14 days after treatment
Summary of the method: as §2

[6] = tested on: Amaranthus viridis; test: as above; conditions: 120 g/10a active ingredient, evaluated 14 days after treatment
Summary of the method: as §2

[7] = tested on: southern crabgrass; test: as above; conditions: 120 g/10a active ingredient, evaluated 14 days after treatment
Summary of the method: as §2

[8] = tested on: Chenopodium album; test: Test Example 4: herbicidal effect test by treatment of leave and stem in dry field farming (seven days after seeding); conditions: 120 g/10a active ingredient; emulsion sprayed seven days after seeding; evaluated 14 days after treatment
Summary of the method: (§3)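 Duplicate pots were scored 14 days post-spray by dry weight, herbicidal rate = {1 − treated/untreated average dry weight} × 100. The water-diluted emulsion, equivalent to 120 g active ingredient per 10 ares in 100 L, was applied seven days after sowing 20 seeds each into the upper 1 cm of alluvial soil.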

[9] = tested on: Echinochloa crus-galli; test: as above; conditions: 120 g/10a active ingredient; emulsion sprayed seven days after seeding; evaluated 14 days after treatment
Summary of the method: as §3

[10] = tested on: Amaranthus viridis; test: as above; conditions: 120 g/10a active ingredient; emulsion sprayed seven days after seeding; evaluated 14 days after treatment
Summary of the method: as §3

[11] = tested on: southern crabgrass; test: as above; conditions: 120 g/10a active ingredient; emulsion sprayed seven days after seeding; evaluated 14 days after treatment
Summary of the method: as §3

[12] = tested on: broad leaf weeds (Lindernia pyxidaria and Monochoria vaginalis); test: Test Example 2: herbicidal effect test by treatment during growing period in paddy rice cultivation (seven days after seeding); conditions: 120 g/10a active ingredient, assessed 14 days after treatment, dry weight vs untreated area
Summary of the method: (§4)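 Emulsion formulations, diluted in water, applied dropwise to flooded pots (about 3 cm water) 7 days post-seeding at 120 g a.i./10 ares. Weeds sown 30 seeds each, 0–1 cm deep in puddled paddy soil; greenhouse. Readout: % reduction in plant dry weight vs untreated, day 14, duplicates.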

[13] = tested on: Echinochloa crus-galli; test: as above; conditions: 120 g/10a active ingredient, assessed 14 days after treatment, dry weight vs untreated area
Summary of the method: as §4

[14] = tested on: Scirpus juncoides; test: as above; conditions: 120 g/10a active ingredient, assessed 14 days after treatment, dry weight vs untreated area
Summary of the method: as §4

SMILES	Herbicidal rate (%) Lindernia pyxidaria [1] [%]	Herbicidal rate (%) Monochoria vaginalis [1] [%]	Herbicidal rate (%) Echinochloa crus-galli [2] [%]	Herbicidal rate (%) Scirpus juncoides [3] [%]	herbicidal rate, Chenopodium album [4] [%]	herbicidal rate, Echinochloa crus-galli [5] [%]	herbicidal rate, Amaranthus viridis [6] [%]	herbicidal rate, southern crabgrass [7] [%]	herbicidal effect (herbicidal rate), Chenopodium album [8] [%]	herbicidal effect (herbicidal rate), Echinochloa crus-galli [9] [%]	herbicidal effect (herbicidal rate), Amaranthus viridis [10] [%]	herbicidal effect (herbicidal rate), southern crabgrass [11] [%]	Herbicidal rate (%) Lindernia pyxidaria [12] [%]	Herbicidal rate (%) Monochoria vaginalis [12] [%]	Herbicidal rate (%) Echinochloa crus-galli [13] [%]	Herbicidal rate (%) Scirpus juncoides [14] [%]
Cc1c(Cc2ccccc2N(S(C)(=O)=O)S(=O)(=O)C(F)(F)F)c(=O)on1C(C)c1ccccc1 (stereo not shown) [Compound 1-907]	90	90	90	90	90	90	90	90	40	90	40	90	90	90	90	90
COC(=O)N(c1ccccc1Cc1c(C)n(C(C)(C)C)oc1=O)S(=O)(=O)C(F)(F)F [Compound 1-576]	90	90	90	90	90	90	90	90	40	90	40	90	90	90	90	90
CCS(=O)(=O)N(c1ccccc1Cc1c(C)n(C(C)c2ccccc2)oc1=O)S(=O)(=O)C(F)(F)F (stereo not shown) [Compound 1-917]	90	90	90	90	90	90	90	90	40	90	40	90	90	90	90	90
Cc1c(Cc2ccccc2NS(=O)(=O)C(F)(F)F)c(=O)on1CC(C)c1ccccc1 (stereo not shown) [Compound 1-219]	90	80	100	90	40	90	90	80	0	90	40	60	40	70	90	90
Cc1c(Cc2ccccc2NS(=O)(=O)C(F)(F)F)c(=O)on1C(C)(C)C [Compound 1-101]	90	90	90	90	90	90	90	90	40	90	40	90	90	90	90	90
Cc1c(Cc2ccccc2N(S(=O)(=O)C(F)(F)F)S(=O)(=O)C(F)(F)F)c(=O)on1C(C)C [Compound 1-962]	100	100	100	90	70	90	80	90	50	90	40	60	60	80	90	80
COC(=O)N(c1ccccc1Cc1c(C)n(C(C)C)oc1=O)S(=O)(=O)C(F)(F)F [Compound 1-575]	100	100	90	100	40	90	40	90	90	90	30	90	100	100	90	100
Cc1c(Cc2ccccc2N(C(=O)OCc2ccccc2)S(=O)(=O)C(F)(F)F)c(=O)on1C(C)c1ccccc1 (stereo not shown) [Compound 1-796]	90	90	90	90	90	90	90	90	40	90	40	90	90	90	90	90
CCCC(C)n1oc(=O)c(Cc2ccccc2N(S(=O)(=O)C(F)(F)F)S(=O)(=O)C(F)(F)F)c1C (stereo not shown) [Compound 1-970]	100	100	100	100	40	90	60	90	40	90	60	70	70	90	100	90
CCCCC(c1ccccc1)n1oc(=O)c(Cc2ccccc2N(S(=O)(=O)C(F)(F)F)S(=O)(=O)C(F)(F)F)c1C (stereo not shown) [Compound 1-1041]	90	90	100	90	50	70	50	80	40	40	60	50	70	70	90	70
